Results taken from PubChem BioAssay (NCI).
Where “and” joins values, the source holds several entries; their conditions need not be identical. Equal entries are not always repeated.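 Each compound was tested at five concentrations against cells in 96-well plates for 48 hours. GI50: concentration for 50% inhibition of growth. TGI: total growth inhibition.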

Legend:
Test in all cases: DTP human tumour cell line panel, 48 h
[1] = tested on: DMS 114 small cell lung
[2] = tested on: KM20L2 colon
[3] = tested on: M19-MEL melanoma
[4] = tested on: RXF-631 renal
[5] = tested on: SNB-78 CNS
[6] = tested on: MDA-N
[7] = tested on: BT-549 breast

| SMILES | TGI [1] | TGI [2] | TGI [3] | TGI [5] | GI50 [7] | TGI [7] | other results |
| --- | --- | --- | --- | --- | --- | --- | --- |
| O=C(O)c1cc2ccc(Cl)cc2c(O)c1C1=CCCCC1 | 63.6 µM | > 100 µM | > 100 µM | > 100 µM |  |  | TGI [4]: > 100 µM |
| COc1cc([N+](=O)[O-])c(S(=O)(=O)O)cc1-[n+]1nc(C(=O)Nc2ccccc2)nn1-c1ccc([N+](=O)[O-])c(S(=O)(=O)[O-])c1 |  |  |  |  |  |  | TGI [6]: > 100 µM |
| COc1cc(-c2ccc[nH]2)[nH]c1/C=C1\N=C(C)C(C(=O)NC(C)C)=C1C |  |  |  |  | 4.62 µM | 18.9 µM |  |
| CCCCCCC1CCCCN1C(c1ccccc1)C(O)c1ccccc1 (configuration not stated) |  |  |  |  | 10.4 µM | 22.4 µM |  |
| O=C(CC/C(CC(=O)c1ccc(Cl)cc1)=N\O)Nc1cccc(Cl)c1 | > 100 µM | > 100 µM | > 100 µM | > 100 µM |  |  |  |
| CN(C)CC(=O)N1CCc2c([nH]c3ccccc23)C1c1cccnc1 (configuration not stated) | > 100 µM | > 100 µM | > 100 µM | > 100 µM | 12.9 µM | 77.4 µM | TGI [4]: > 100 µM |
| NC(=O)C1C(=O)Oc2cccnc21 (configuration not stated) | > 100 µM | > 100 µM | > 100 µM |  |  |  |  |
| C=C(/C=C/C=C(\CO)CCC=C(C)C)[C@H]1CCC2([C@H](CCCO)/C(=C(/C)C=O)CC[C@]2(C)O)[C@H]1O (some centres not stated) | > 100 µM | > 100 µM | > 100 µM | > 100 µM |  |  |  |
| Cc1cc(=O)[nH]c2c1C(=O)c1c(C)cc(=O)n(C)c1C2=O |  |  |  |  |  | 0.0519 µM | TGI [6]: 0.0331 µM |
| CN1CCC(C(=O)Nc2n[nH]c3nnc(-c4ccccc4)cc23)CC1 |  |  |  |  | > 25 µM | > 25 µM |  |
| CCOC(=O)C(=O)Nc1nc2ccc(OC)cc2s1 |  | > 100 µM | > 100 µM | > 100 µM |  |  |  |
| COc1ccc2c(c1)CCC1C2CCC2(C)C(NC(=O)CCCCC3CCSS3)CCC12 (configuration not stated) |  |  |  |  | > 100 µM | > 100 µM |  |
| CC(C)OC(=O)c1cc(NC(=S)OC(C)C)ccc1Cl |  |  |  |  |  | 33.5 µM | TGI [6]: 50 µM |
| CNC(=O)N(CCCCC(NC(C)=O)C(=O)NCc1ccccc1)Cc1ccccc1 (configuration not stated) | > 100 µM | > 100 µM | > 100 µM | > 100 µM |  |  | TGI [4]: > 100 µM |
| COc1ccc(S(=O)(=O)NNS(C)(=O)=O)cc1OC |  | > 100 µM | > 100 µM |  |  |  |  |
| COc1cc(C(=O)/C=C/c2c(C)n([O-])c3ccc(Cl)cc3[n+]2=O)cc(OC)c1OC |  |  |  |  | 11 µM | > 100 µM |  |
| O=C([CH-]C(=O)c1ccccc1)c1ccccc1.[CH2-]C.[CH2-]C.[Tl+3] |  | > 100 µM |  |  | 26.9 µM | > 100 µM | GI50 [2]: 27.4 µM |
| COc1cc2c(cc1OC)C(Sc1ccc(Cl)cc1)c1c(nc(N)c(C#N)c1N)O2 (configuration not stated) |  |  |  |  | 1.49 µM | 2.83 µM |  |
| COc1ccc(-c2nn(-c3cccc(Cl)c3)cc2-c2c(C#N)c(=O)n3[nH]c(-c4ccc(C)o4)nc3c2C#N)cc1 |  |  |  |  | 4.19 µM | 43.5 µM |  |

| SMILES | TGI [1] | TGI [2] | TGI [3] | TGI [5] | GI50 [7] | TGI [7] | other results |
| --- | --- | --- | --- | --- | --- | --- | --- |
| O=C(/C=N/O)Nc1cccc(Cl)c1I | 79.2 µM | > 100 µM | > 100 µM |  |  |  |  |
| c1ccc2[nH]c(-c3cscn3)nc2c1 |  |  |  |  |  | > 100 µM | TGI [6]: > 100 µM |
| O=C(Nc1c(Cl)cc([N+](=O)[O-])cc1Cl)C(=O)C(C(=O)c1ccncc1)C1OC(=O)c2ccccc21 (configuration not stated) | > 100 µM | > 100 µM | > 100 µM | > 100 µM |  |  | TGI [4]: > 100 µM |
| Nc1nc2c([nH]1)c1[nH]c3ccccc3c1c1[nH]c3ccccc3c21 |  |  |  |  | 12.1 µM | 25.5 µM |  |
| Nc1cccc(C(=O)/C=C/c2ccccc2O)c1 | > 100 µM | > 100 µM | > 100 µM | > 100 µM |  |  |  |
| Cc1cc(N(CCC#N)CCC#N)ccc1/C=C1N=C(/C=C\c2ccccc2)N(c2ccc(C(=O)O)cc2)C\1=O | > 100 µM | > 100 µM | > 100 µM | > 100 µM |  |  | TGI [4]: > 100 µM |
| NCC[PH+](c1ccccc1)c1ccccc1.NCC[PH+](c1ccccc1)c1ccccc1.[Cl-].[Pt+4] |  |  |  |  | > 100 µM | > 100 µM | GI50 [6]: > 100 µM; TGI [6]: > 100 µM |
| Cn1cc(C2=C(c3cccc([N+](=O)[O-])c3)C(=O)NC2=O)c2ccccc21 |  |  |  |  | 6.38 µM | > 23.2 µM |  |
| COc1ccc(C2C(C(=O)O)=C(COC(C)=O)Oc3cc4c(cc32)OCO4)c(OC)c1 (configuration not stated) | > 100 µM | > 100 µM | > 100 µM | > 100 µM |  |  | TGI [4]: > 100 µM |
| O=C(/C=C/c1ccccn1)c1ccccc1 |  |  |  |  | 14.4 µM | 27.6 µM |  |
| CN(C)CN(C)c1nc(N(C)C)nc(N(C)C)n1 | > 100 µM | > 100 µM | > 100 µM | > 100 µM |  |  |  |
| O=[N+]([O-])/C(=C/C=C/c1ccccc1)c1ccccc1 |  |  |  |  | 1.91 µM | 4.1 µM |  |
| COc1ccc2cc1Oc1ccc(cc1)CC1c3c(cc(OC)c4c3Oc3cc5c(cc3O4)CCNC5C2)CCN1C (configuration not stated) |  |  |  |  |  | 8.01 µM | GI50 [6]: 1.95 µM; TGI [6]: 3.43 µM and 3.49 µM |
| CC(C)(C)OC(=O)CC(S(=O)(=O)c1ccccc1)S(=O)(=O)c1ccccc1 |  |  |  |  | 12.4 µM | 25.2 µM |  |
| Cc1c(C(=O)/C=C/c2ccc3c(c2)OCO3)[n+](=O)c2ccccc2n1[O-] | 48.8 µM | 48.3 µM | > 100 µM | > 100 µM |  |  | TGI [4]: > 100 µM |
| O=S1(=O)CS(=O)(=O)OCCCCCO1 | > 100 µM | > 100 µM | > 100 µM | > 100 µM |  |  | TGI [4]: > 100 µM |
| COc1ccc(N=C2C(=O)Nc3ccc(Br)cc32)cc1 |  |  |  |  |  |  | TGI [6]: 30.3 µM |
| c1ccc2c(c1)n1nnnc1c1nnnn21 | > 100 µM | > 100 µM | > 100 µM | > 100 µM |  |  | TGI [4]: > 100 µM |
